For this experiment, the target named is T1, human Eg5 motor domain (Homo sapiens, UniProt P52732).
T1 construct: A plasmid expressing the motor domain of human Eg5 was constructed; made in house; host or cells: Escherichia coli BL21 (DE3)
T1 sequence (P52732 18-359 limits assumed): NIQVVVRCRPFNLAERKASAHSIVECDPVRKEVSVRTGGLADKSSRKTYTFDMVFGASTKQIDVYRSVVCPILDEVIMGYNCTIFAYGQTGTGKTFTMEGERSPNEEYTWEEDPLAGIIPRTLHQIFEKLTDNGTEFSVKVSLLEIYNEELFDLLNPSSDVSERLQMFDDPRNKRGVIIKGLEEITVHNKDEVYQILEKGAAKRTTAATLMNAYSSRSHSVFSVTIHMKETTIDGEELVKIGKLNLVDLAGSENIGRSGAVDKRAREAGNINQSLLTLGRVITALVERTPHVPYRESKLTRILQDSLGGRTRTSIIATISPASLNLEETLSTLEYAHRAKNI
The experiment is described as follows: Eg5 enzyme inhibition test (2) (ATPase activity, Eg5 motor domain). To be noted: human Eg5 motor domain purified sample, 30° C. for 30 minutes, absorbance at 360 nm. Format: biochemical. The protocol:
A recombinant human Eg5 motor domain protein was prepared by referring to the literature [Biochemistry, Vol. 35, p. […] A plasmid expressing the motor domain of human Eg5 was constructed, and transformed into Escherichia coli BL21 (DE3). The transformant was cultured at 25° C., and when OD600 reached 0.74, isopropyl-β-D-thiogalactoside was added at a final concentration of 0.5 mmol/L. The transformant was further cultured for 4 hours, and then the culture medium was centrifuged to collect the cells. The cells were suspended in a buffer and ultrasonicated, and then the sonicated solution was centrifuged to recover the supernatant. The supernatant was purified by cation exchange column chromatography to obtain a partially-purified sample. Furthermore, the partially purified sample was purified by gel filtration column chromatography to obtain a finally purified sample.
Measurement of the ATPase activity of Eg5 was carried out by referring to the literatures EEMBO Journal, Vol. 13, p. […] Solution A was dispensed into each well of a 96-well plate as 45 μL portions. Solution B was used to serially dilute a test compound. The diluted test compound solutions in a volume of 30 μL were mixed with Solution A added beforehand in each well of the 96-well plate to start the enzymatic reaction. The enzymatic reaction was performed at 30° C. for 30 minutes.

Experimental findings from US8318782B2, “Mitotic kinesin inhibitor” (Kyowa Hakko Kirin Co., Ltd., priority 2003, dated 2012) are described below.

As to `CC(C)(C)C(=O)NC1=NN(C(=O)C(C)(C)C)C(CNS(C)(=O)=O)(c2ccccc2)S1` (stereo not shown) [Compound 95], the IC50 is no more than 2 µM.

`CCS(=O)(=O)NCC1(c2ccccc2)SC(NC(=O)C(C)(C)C)=NN1C(=O)C(C)(C)C` (stereo not shown) [Compound 97] returned an IC50 of no more than 2 µM.

The compound `CC(C)C(=O)NC1=NN(C(=O)C(C)C)C(CCNS(C)(=O)=O)(c2ccccc2)S1` (stereo not shown) [Compound 100] gave an IC50 of no more than 2 µM.

Compound `CN(C)CCC1(c2ccccc2)SC(NC(=O)C(C)(C)C)=NN1C(=O)C(C)(C)C` (stereo not shown) [Compound 104] displayed an IC50 of no more than 2 µM.

Regarding `CC(C)(C)C(=O)NC1=NN(C(=O)C(C)(C)C)C(CCC(N)=O)(c2ccccc2)S1` (stereo not shown) [Compound 107], the IC50 is no more than 2 µM.

`CC(C)(C)C(=O)NC1=NN(C(=O)C(C)(C)C)C(CCC(=O)NCCO)(c2ccccc2)S1` (stereo not shown) [Compound 111] gave an IC50 of no more than 2 µM.

With `CC(=O)NC1=NN(C(C)=O)C(C)(c2sccc2Cl)S1` (stereo not shown) [Compound 134], the IC50 was no more than 2 µM.

`CC(=O)N1N=C(N2CCCC2=O)SC1(CNS(C)(=O)=O)c1ccccc1` (stereo not shown) [Compound 152] gave an IC50 of no more than 2 µM.

`CC(=O)N1N=C(N2CCCCC2=O)SC1(CNS(C)(=O)=O)c1ccccc1` (stereo not shown) [Compound 154] gave an IC50 of no more than 2 µM.

As to `C=CS(=O)(=O)NCC1(c2ccccc2)SC(NC(=O)C(C)(C)C)=NN1C(=O)C(C)(C)C` (stereo not shown) [Compound 171], the IC50 was no more than 2 µM.

On to `CC(=O)N1N=C(NC(=O)C(C)(C)C)SC1(CNS(=O)(=O)CCN(C)C)c1ccccc1` (stereo not shown) [Compound 174], for which the IC50 was no more than 2 µM.

For `CCNCCS(=O)(=O)NCC1(c2ccccc2)SC(NC(=O)C(C)(C)C)=NN1C(=O)C(C)(C)C` (stereo not shown) [Compound 176], the IC50 is no more than 2 µM.

`CC(C)(C)C(=O)NC1=NN(C(=O)C(C)(C)C)C(CCN)(c2ccccc2)S1` (stereo not shown) [Compound 210] returned an IC50 of no more than 2 µM.

Consider `CC(C)(C)C(=O)NC1=NN(C(=O)C(C)(C)C)C(CNS(=O)(=O)CCCN)(c2ccccc2)S1` (stereo not shown) [Compound 221], for which the IC50 is no more than 2 µM.

In turn, `CN(C)CCCS(=O)(=O)NCC1(c2ccccc2)SC(NC(=O)C(C)(C)C)=NN1C(=O)C(C)(C)C` (stereo not shown) [Compound 238] yielded an IC50 of no more than 2 µM.

The compound `CCN(C)CCS(=O)(=O)NCC1(c2ccccc2)SC(NC(=O)C(C)(C)C)=NN1C(=O)C(C)(C)C` (stereo not shown) [Compound 264] had an IC50 of no more than 2 µM.
